Test results as given in paper PMC10360995, “Discovery of 3-((3-amino-1H-indazol-4-yl)ethynyl)-N-(4-((4-ethylpiperazin-1-yl)methyl)-3-(trifluoromethyl)phenyl)benzamide (AKE-72), a potent Pan-BCR-ABL inhibitor including the T315I gatekeeper resistant mutant” (Journal of Enzyme Inhibition and Medicinal Chemistry, 2023).
pIC50: −log10 of the molar value.

Tests used:
RPMI-8226 = test: NCI SRB anti-leukemic assay
K-562 = test: NCI SRB anti-leukemic assay
CCRF-CEM = test: NCI SRB anti-leukemic assay
HL-60(TB) [1] = test: cells; details: Homo sapiens
BCR-ABL^WT = BCR-ABL^WT (Homo sapiens, UniProt P00519); test: BCR-ABL WT kinase inhibition assay; type: biochemical
Chain of BCR-ABL^WT (P00519 whole entry): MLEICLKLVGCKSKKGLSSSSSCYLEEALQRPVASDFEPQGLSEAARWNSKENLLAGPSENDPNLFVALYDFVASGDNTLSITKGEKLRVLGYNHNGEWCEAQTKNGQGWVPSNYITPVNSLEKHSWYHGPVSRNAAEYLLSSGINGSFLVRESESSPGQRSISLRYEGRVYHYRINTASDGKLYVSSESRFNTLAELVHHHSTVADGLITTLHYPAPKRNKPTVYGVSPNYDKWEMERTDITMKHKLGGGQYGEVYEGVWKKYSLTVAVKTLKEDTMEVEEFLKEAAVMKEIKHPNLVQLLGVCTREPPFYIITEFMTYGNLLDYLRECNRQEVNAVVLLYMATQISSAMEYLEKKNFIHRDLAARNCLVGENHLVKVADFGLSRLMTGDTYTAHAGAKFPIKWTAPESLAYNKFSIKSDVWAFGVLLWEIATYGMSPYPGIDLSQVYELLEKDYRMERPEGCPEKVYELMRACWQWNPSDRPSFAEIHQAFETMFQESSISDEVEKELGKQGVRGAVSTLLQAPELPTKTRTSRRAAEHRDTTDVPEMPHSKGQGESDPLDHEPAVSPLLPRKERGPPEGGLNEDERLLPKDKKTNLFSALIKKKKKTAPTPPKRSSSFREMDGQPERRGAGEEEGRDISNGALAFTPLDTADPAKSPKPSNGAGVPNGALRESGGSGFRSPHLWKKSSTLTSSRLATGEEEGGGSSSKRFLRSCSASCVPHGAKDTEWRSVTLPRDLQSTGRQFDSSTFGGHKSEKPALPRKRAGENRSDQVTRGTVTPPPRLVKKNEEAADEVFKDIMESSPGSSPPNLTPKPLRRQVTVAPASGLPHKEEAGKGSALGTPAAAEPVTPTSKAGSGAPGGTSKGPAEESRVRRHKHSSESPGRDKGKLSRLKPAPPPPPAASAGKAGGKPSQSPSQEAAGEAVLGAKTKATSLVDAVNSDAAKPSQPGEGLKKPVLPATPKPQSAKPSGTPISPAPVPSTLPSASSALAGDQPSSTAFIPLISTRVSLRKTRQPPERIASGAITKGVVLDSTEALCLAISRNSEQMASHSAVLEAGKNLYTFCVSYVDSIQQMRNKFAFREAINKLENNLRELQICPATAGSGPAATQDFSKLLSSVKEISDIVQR

SR = test: NCI SRB anti-leukemic assay
MOLT-4 = test: NCI SRB anti-leukemic assay
HL-60(TB) [2] = details: five-dose assay

SMILES: CN1CCN(Cc2ccc(C(=O)Nc3cccc(C#Cc4cccc5[nH]nc(N)c45)c3)cc2C(F)(F)F)CC1 [Compound 4a]
- GI50 (RPMI-8226; Homo sapiens, RPMI-8226, read-out: GI50 RPMI-8226): 1220 nM
- CC50 (RPMI-8226; Homo sapiens, RPMI-8226, read-out: LC50 (half-maximal lethal concentration) RPMI-8226): 9520 nM
- TGI (total growth inhibition) RPMI-8226 (RPMI-8226; five-dose assay): 3260 nM
- GI % RPMI-8226 (RPMI-8226; single dose 10 µM): L (lethal effect (% GI > 100))
- GI50 (K-562; Homo sapiens, K562, read-out: GI50 K-562): < 10 nM
- CC50 (K-562; Homo sapiens, K562, read-out: LC50 (half-maximal lethal concentration) K-562): 6030 nM
- TGI (total growth inhibition) K-562 (K-562; five-dose assay): 1020 nM
- GI50 (CCRF-CEM; Homo sapiens, CCRF-CEM, read-out: GI50 CCRF-CEM): 1220 nM
- CC50 (CCRF-CEM; Homo sapiens, CCRF-CEM, read-out: LC50 (half-maximal lethal concentration) CCRF-CEM): 8300 nM
- TGI (total growth inhibition) CCRF-CEM (CCRF-CEM; five-dose assay): 3180 nM
- GI % CCRF-CEM (CCRF-CEM; single dose 10 µM): L (lethal effect (% GI > 100))
- GI50 (HL-60(TB) [1]; HL-60, read-out: GI50 HL-60(TB)): 278 nM
- CC50 (HL-60(TB) [1]; HL-60, read-out: LC50 (half-maximal lethal concentration) HL-60(TB)): 7330 nM
- pIC50 (BCR-ABL^WT; 10-dose duplicate, 3-fold serial dilution, 10 µM ATP): > 9.29
- fold superior potency against BCR-ABL^WT versus lead indazole II (BCR-ABL^WT; relative to II): > 300 folds
- GI50 (SR; Homo sapiens, SR, read-out: GI50 SR): 1100 nM
- CC50 (SR; Homo sapiens, SR, read-out: LC50 (half-maximal lethal concentration) SR): > 100000 nM
- TGI (total growth inhibition) SR (SR; five-dose assay): 3350 nM
- GI50 (MOLT-4; Homo sapiens, MOLT-4, read-out: GI50 MOLT-4): 494 nM
- CC50 (MOLT-4; Homo sapiens, MOLT-4, read-out: LC50 (half-maximal lethal concentration) MOLT-4): 7570 nM
- TGI (total growth inhibition) MOLT-4 (MOLT-4; five-dose assay): 2280 nM
- TGI (total growth inhibition) HL-60(TB) (HL-60(TB) [2]): 1600 nM
